US20250026752A1, “POSITIVE ALLOSTERIC MODULATORS OF THE MUSCARINIC ACETYLCHOLINE RECEPTOR M4” (Vanderbilt University, priority 2021, published 2025)

Target: T1, human mAChR M4 (Homo sapiens, UniProt P08173)
T1 construct: expressed in transfected cells; host or cells: CHO-K1 (ATCC), stably expressing hM4 and Gqi5
T1 sequence (P08173 1-479): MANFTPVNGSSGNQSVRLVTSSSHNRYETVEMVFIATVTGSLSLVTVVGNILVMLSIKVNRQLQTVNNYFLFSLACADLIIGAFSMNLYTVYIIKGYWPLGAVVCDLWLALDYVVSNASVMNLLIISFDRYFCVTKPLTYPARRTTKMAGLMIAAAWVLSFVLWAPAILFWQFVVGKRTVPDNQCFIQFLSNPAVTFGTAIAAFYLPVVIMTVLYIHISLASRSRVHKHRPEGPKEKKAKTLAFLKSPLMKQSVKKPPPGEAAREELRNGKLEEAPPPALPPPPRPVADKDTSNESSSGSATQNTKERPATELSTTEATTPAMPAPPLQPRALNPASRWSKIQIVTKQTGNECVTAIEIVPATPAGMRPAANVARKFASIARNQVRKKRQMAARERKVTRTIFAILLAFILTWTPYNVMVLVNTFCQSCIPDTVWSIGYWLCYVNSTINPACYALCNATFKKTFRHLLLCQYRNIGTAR
Assay: mAChR M4 cell-based functional assay: calcium flux (Fluo-4, FDSS), positive allosteric modulator activity on the EC20 acetylcholine response, hM4-Gqi5 CHO-K1 cells
Details: for Emax at 30 µM: CHO-K1, human M4, % ACh maximum at 30 μM; for EC50: human M4, PAM activity on EC20 acetylcholine response, calcium flux, read-out: Human M4 EC50
Description: Human M4 cDNA, along with the chimeric G protein Gqi5, were transfected into Chinese hamster ovary (CHO-K1) cells purchased from the American Type Culture Collection using commercially available Lipofectamine 2000 transfection reagent (Dalby, B. et al., Methods (2004) 33(2), 95-103). hM4-Gqi5 cells were grown in Ham's F-12 medium containing 10% heat-inactivated fetal bovine serum (FBS), 20 mM […], 50 μg/mL G418 sulfate (CAS #108321-42-2), and 500 μg/mL Hygromycin B. rM4-Gqi5 cells were grown in DMEM containing 10% heat-inactivated FBS, 20 mM HEPES, 400 μg/mL G418 sulfate, and 500 μg/mL Hygromycin B.
For high throughput measurement of agonist-evoked increases in intracellular calcium, CHO-K1 cells stably expressing muscarinic receptors were plated in growth medium lacking G418 sulfate and hygromycin at 15,000 cells/20 μL/well in Greiner 384-well black-walled, tissue culture (TC)-treated, clear-bottom plates (VWR). Cells were incubated overnight at 37° C. and 5% C02. The next day, cells were washed using an ELX 405 (BioTek) with assay buffer; the final volume was then aspirated to 20 μL. Next, 20 μL of a 2.3 μM stock of Fluo-4/acetoxymethyl ester (Invitrogen, Carlsbad, CA), prepared as a 2.3 mM stock in DMSO and mixed in a 1:1 ratio with 10% (w/v) Pluronic F-127 and diluted in assay buffer, was added to the wells and the cell plates were incubated for 50 minutes at 37° C. and 5% C02. Dye was removed by washing with the ELX 405 and the final volume was aspirated to 20 μL. Compound master plates were formatted in an 11 point concentration-response curve (CRC) format (1:3 dilutions) in 100% DMSO with a starting concentration of 10 mM using a BRAVO liquid handler (Agilent). Test compound CRCs were then transferred to daughter plates (240 nL) using the Echo acoustic plate reformatter (Labcyte, Sunnyvale, CA) and then diluted into assay buffer (40 μL) to a 2× stock using a Thermo Fisher Combi (Thermo Fisher Scientific, Waltham, MA).
Calcium flux was measured using the Functional Drug Screening System (FDSS) 6000 or 7000 (Hamamatsu Corporation, Tokyo, Japan) as an increase in the fluorescent static ratio. Compounds were applied to cells (20 μL, 2×) using the automated system of the FDSS at 2-4 seconds into the protocol and the data were collected at 1 Hz. At 144 seconds, 10 μL of an EC20 concentration of the muscarinic receptor agonist acetylcholine was added (5×), followed by the addition of 12 μL of an EC80 concentration of acetylcholine at the 230 second time point (5×). Agonist activity was analyzed as a concentration-dependent increase in calcium mobilization upon compound addition. Positive allosteric modulator activity was analyzed as a concentration-dependent increase in the EC20 acetylcholine response. With the acetylcholine EC20 set as baseline, the test compound EC50 is determined as the concentration that produces an increase above baseline of 50% of the maximum increase in acetylcholine response elicted by the test compound. Antagonist activity was analyzed as a concentration-dependent decrease in the ECso acetylcholine response. Concentration-response curves were generated using a four-parameter logistical equation in XLFit curve fitting software (IDBS, Bridgewater, NJ) for Excel (Microsoft, Redmond, WA) or Prism (GraphPad Software, Inc., San Diego, CA).
Compounds were synthesized as described above. Activity (EC50 and Emax) was determined in the mAChR M4 cell-based functional assay as described above and the data are shown in Table 4. The compound numbers correspond to the compound numbers used in Examples 1-33 and Tables 1, 2, and 3.

Row | SMILES | Emax at 30 µM [%] | EC50 [µM]
1 | Cc1nc(N2CCc3ncc(-c4cnn(C)c4)cc3C2)c2cc(F)ccc2n1 [Compound 21, 6-fluoro-2-methyl-4-[3-(1-methylpyrazol-4-yl)-7,8-dihydro-5H-1,6-naphthyridin-6-yl]quinazoline] | 90 | 0.04
2 | Cc1ccc2nc(N3CCCC3)nc(N3CCc4ncc(C(F)(F)F)cc4C3)c2c1 [Compound 206, 6-methyl-2-pyrrolidin-1-yl-4-[3-(trifluoromethyl)-7,8-dihydro-5H-1,6-naphthyridin-6-yl]quinazoline] | 74 | 0.72
3 | Cc1ncc(-c2cnc3c(c2)CN(c2nc(Cl)nc4ncccc24)CC3)s1 [Compound 35, 5-[6-(2-chloropyrido[2,3-d]pyrimidin-4-yl)-7,8-dihydro-5H-1,6-naphthyridin-3-yl]-2-methyl-thiazole] | 57 | 0.61
4 | Clc1ccc2ncnc(N3CCc4ncc(-c5cnn(C6CC6)c5)cc4C3)c2c1 [Compound 17, 6-chloro-4-[3-(1-cyclopropylpyrazol-4-yl)-7,8-dihydro-5H-1,6-naphthyridin-6-yl]quinazoline] | 78 | 0.12
5 | Cc1nc(N2CCc3ncc(-c4ccc(C5CC5)nc4)cc3C2)c2cc(Cl)ccc2n1 [Compound 50, 6-chloro-4-[3-(6-cyclopropyl-3-pyridyl)-7,8-dihydro-5H-1,6-naphthyridin-6-yl]-2-methyl-quinazoline] | 83 | 1.07
6 | Fc1ncccc1Nc1cnc2c(c1)CN(c1nc(Cl)nc3ccc(Cl)cc13)CC2 [Compound 88, 6-(2,6-dichloroquinazolin-4-yl)-N-(2-fluoro-3-pyridyl)-7,8-dihydro-5H-1,6-naphthyridin-3-amine] | 103 | 1.07
7 | Cc1ccc2nc(N3CCOCC3)nc(N3CCc4ncc(C(F)(F)F)cc4C3)c2c1 [Compound 205, 4-[6-methyl-4-[3-(trifluoromethyl)-7,8-dihydro-5H-1,6-naphthyridin-6-yl]quinazolin-2-yl]morpholine] | 63 | 0.67
8 | Cc1ccc(F)cc1-c1cnc2c(c1)CN(c1ncnc3ccc(Cl)cc13)CC2 [Compound 301, 6-chloro-4-(3-(5-fluoro-2-methylphenyl)-7,8-dihydro-1,6-naphthyridin-6(5H)-yl)quinazoline] | 94 | 3.06
9 | Cc1nn(C)cc1-c1cnc2c(c1)CN(c1ncnc3cc(F)c(F)cc13)CC2 [Compound 8, 4-[3-(1,3-dimethylpyrazol-4-yl)-7,8-dihydro-5H-1,6-naphthyridin-6-yl]-6,7-difluoro-quinazoline] | 87 | 0.06
10 | Cc1ccc2ncnc(N3CCc4ncc(Nc5cccnc5F)cc4C3)c2c1 [Compound 97, N-(2-fluoro-3-pyridyl)-6-(6-methylquinazolin-4-yl)-7,8-dihydro-5H-1,6-naphthyridin-3-amine] | 95 | 0.08
11 | Cc1noc(C)c1-c1cnc2c(c1)CN(c1ncnc3ccc(Cl)cc13)CC2 [Compound 2, 4-[6-(6-chloroquinazolin-4-yl)-7,8-dihydro-5H-1,6-naphthyridin-3-yl]-3,5-dimethyl-isoxazole] | 86 | 0.06
12 | COc1cc2c(N3CCc4ncc(C(F)(F)F)cc4C3)nc(Cl)nc2cc1F [Compound 167, 2-chloro-7-fluoro-6-methoxy-4-[3-(trifluoromethyl)-7,8-dihydro-5H-1,6-naphthyridin-6-yl]quinazoline] | 72 | 0.35
13 | Cc1nc(N2CCc3ncc(-c4cnc(C)s4)cc3C2)c2cc(F)ccc2n1 [Compound 23, 5-[6-(6-fluoro-2-methyl-quinazolin-4-yl)-7,8-dihydro-5H-1,6-naphthyridin-3-yl]-2-methyl-thiazole] | 93 | 0.17
